# Test results as given in patent US6344478B2, “Use of cloprostenol and fluprostenol analogues to treat glaucoma and ocular hypertension” (Alcon Manufacturing, Ltd., priority 1993, dated 2002).
# Key:
# [1] = test system: IOP in cynomolgus monkey eyes; assay: Monkey IOP response in lasered (ocular hypertensive) cynomolgus monkey eyes; format: in vivo; conditions: lasered right eyes of cynomolgus monkeys; five-dose regimen; estimated from dose response relationship
# Procedure: In the study presented below, compound 6 (Table 2, above) was tested for IOP-lowering effect in cynomolgus monkey eyes.
# The right eyes of the cynomolgus monkeys used in this study were previously given laser trabeculoplasty to induce ocular hypertension in the lasered eye. Animals had been trained to sit in restraint chairs and conditioned to accept experimental procedures without chemical restraint. IOP was determined with a pneumatonometer after light corneal anesthesia with dilute proparacaine. The test protocol included a five-dose treatment regimen because of the typical delayed response to prostaglandins. The designated test formulations were administered to the lasered right eyes, and the normal left eyes remained untreated, although IOP measurements were taken. Baseline IOP values were determined prior to treatment with the test formulation, and then IOP was determined from 1 to 7 hours after the first dose, 16 hours after the fourth dose, and 1 to 4 hours after the fifth dose.
# The equivalent response dose (ED20) is estimated from the dose response relationship to be the dose producing a 20% peak reduction in IOP.
# [2] = test system: pupil diameter of cats; assay: Cat pupil diameter response (pupillary constriction in the cat); format: in vivo; conditions: for ED5 (equivalent response dose, from Area1-5 of pupil diameter versus time curve): area under pupil diameter vs time curve 1-5 hours, estimated from dose response relationship
# Procedure: PGF2α analogues are known to contract the iris sphincter of cats and this assay is a generally accepted reference for activity.
# Compounds of the present invention were therefore screened for pupillary constriction in the cat. The response is quantitated as Area1-5 values (area under the pupil diameter versus time curve from 1-5 hours), and the equivalent response dose (ED5) is estimated from its dose response relationship.
# [3] = test system: microvascular optic nerve head (ONH) blood flow; assay: Optic nerve head blood flow after one-week topical treatment in the rabbit (Laser Doppler flowmeter); format: in vivo, Dutch-Belted rabbits
# Procedure: (§1) Purpose: A two-way crossover study design was used to compare the effects of Compound 1B (0.004%), topically applied, and dosing vehicle on microvascular optic nerve head blood flow, blood pressure, heart rate, and acid-base balance in fifteen acepromazine-tranquilized Dutch-Belted rabbits. Methods: Baseline measurements were taken before treatment and after drug-free washout periods of 14 days. Microvascular optic nerve head (ONH) blood flow was measured with a fundus camera-based Laser Doppler flowmeter (LDf). Thirty microliters o a 0.004% solution of Compound 1B or vehicle was administered in left eyes only q.d. for 7 days. Experimental measurements were made 2 hours after the topical dose was administered on day 8. A sterile 23 gauge intracatheter was inserted into the central ear artery to monitor blood pressure and to take blood samples for blood pH/gas analysis.
# [4] = Systemic blood pressure, heart rate and blood pH/gas analysis in the rabbit ONH blood flow study; format: in vivo, Dutch-Belted rabbits; conditions: 0.004% topical q.d. 7 days
# Procedure: as §1
smiles,measurement,setting,value
"CC(C)OC(=O)CCC/C=C\CC1C(CC[C@@H](O)COc2cccc(C(F)(F)F)c2)[C@H](O)C[C@@H]1O (stereo partly drawn) [Compound 6, (5Z)-(9S, 11R, 15R)-17,18,19,20-Tetranor-16-(3-trifluoromethylphenoxy)-9,11,15-trihydroxy-5-prostenoic Acid Isopropyl Ester]",ED20 (dose producing a 20% peak reduction in IOP),[1],0.3 µg
same,"ED5 (equivalent response dose, from Area1-5 of pupil diameter versus time curve)",[2],0.2 µg
"CC(C)OC(=O)CCC/C=C\C[C@H]1C(O)CC(O)[C@@H]1/C=C/C(O)COc1cccc(C(F)(F)F)c1 (stereo partly shown) [Compound 1B, Fluprostenol, isopropyl ester]","ONH blood flow, mean±SEM percent increase from baseline","[3]; 0.004% solution, 30 microliters topical q.d. 7 days, measured 2 hours after dose on day 8, acepromazine-tranquilized rabbits",13.4±3.9%
same,ONH blood flow compared to the vehicle treated group,"[3]; 0.004% topical q.d., p<0.05",significantly increased
same,"changes in systemic blood pressure, heart rate, blood gas tensions and pH compared with the vehicle group",[4],small non-significant changes
same,mean percent decrease in arterial pCO2 tension,[4],2.59±2.5%
same,mean percent decrease in arterial pO2 tension,[4],1.44±2.03%
same,mean percent decrease in systemic arterial pH,[4],0.07±0.09%
"CC(C)OC(=O)CCC/C=C\C[C@@H]1[C@@H](/C=C/[C@@H](O)COc2cccc(Cl)c2)[C@H](O)C[C@@H]1O [Compound 1A, Cloprostenol, isopropyl ester]","ED5 (equivalent response dose, from Area1-5 of pupil diameter versus time curve)",[2],0.01 µg
"CC(C)(C)C(=O)OCCCC/C=C\C[C@@H]1[C@@H](CC[C@@H](O)COc2cccc(Cl)c2)[C@H](O)C[C@@H]1O [Compound 8, (5Z)-(9S, 11R, 15R)-16-(3-Chlorophenoxy)-17,18,19,20-tetranor-9,11,15-trihydroxy-5-prostenol Pivaloate]","ED5 (equivalent response dose, from Area1-5 of pupil diameter versus time curve)",[2],0.06 µg
same,potency in cat pupil diameter response compared with the standard compounds,[2]; versus PGF2α isopropyl ester and cloprostenol isopropyl ester,nearly equivalent potency
"CCCCC[C@H](O)/C=C/[C@@H]1[C@@H](C/C=C\CCCC(=O)OC(C)C)[C@@H](O)C[C@H]1O [PGF2α Isopropyl Ester, reference compound]",ED20 (dose producing a 20% peak reduction in IOP),[1],0.4 µg
same,"ED5 (equivalent response dose, from Area1-5 of pupil diameter versus time curve)",[2],0.02 µg
